For assay [1], the system named is CEM-CCRF human lymphoblast cells. The assay is described as follows: Transwell migration assay in CEM-CCRF lymphoblasts. The conditions noted are these: for EC50: read-out: Migration CEM EC50. It is filed as cell-based. As for the experimental part:
Thus, to confirm CXCR4 functional activity, UCUF-728 was evaluated in a 96 w transwell migration assay in CEM human lymphoblast cells.
CEM-CCRF (ATCC CCL-119) were suspended in RPMI 1640 (Corning; 10-040-CV) at 5.0×10^5 cells/mL and allowed to incubate in cell culture incubator at 37° C. with 5% CO2 for one hour. […] Plates were reassembled and placed in a cell culture incubator at 37° C. with 5% CO2 for three hours. After incubation, Multi-Screen plate was disassembled and 100 μl of solution was collected from compound receiver tray and transferred to 96 well luminescent plate (Thermo Scientific; 265302) and an equal volume of ATPLite Istep luminescence reagent (Perkin Elmer, Waltham, MA; 6016731) was added to each well. Luminescence was measured using the CLARIOstar Plus (BMG LABTECH Inc., Cary, NC).

The target in a further assay is CXCR4 (Homo sapiens, UniProt P61073). The assay can be described thus: β-arrestin recruitment, 384-well, Tango CXCR4-bla U2OS cells, normalized to SDF-1α. The conditions noted are these: for Emax: U2OS, read-out: TANGO β-arrestin Emax (%); for ß-arrestin recruitment Emax (%): normalized to maximal SDF-1α response. It is filed as cell-based. Also noted: host or cells: U2OS. Here is the method:
Tango™ CXCR4-bla U2OS Cells (Invitrogen; K1779) were used for (β-arrestin recruitment assays and maintained as a monolayer culture in McCoy's 5a (Corning; 10-050-CV) supplemented with 10% dialyzed Fetal Bovine Serum (Gibco; 26400-044), 0.1 mM MEM Non-essential amino acids solution, 25 mM HEPES solution (Corning; 25-060-CI), 1 mM Sodium Pyruvate (Gibco; 11360-070), 200 μg/mL Zeocin selection reagent (Gibco; R25001), 50 μg/mL Hygromycin B (Gibco, 10687010), and 100 μg/mL Geneticin (G418 Sulfate) (Gibco, 10131035). U2OS cells were subcultured twice weekly by 0.05% Trypsin-EDTA treatment (Corning; 25-051-CI) and passaged to continue exponential growth phase for cell signaling assays. All cell cultures were maintained in cell culture incubators at 37° C. with 5% CO2. CHO-K1 CXCR4 cells (DiscoverX, Fremont, CA, USA) were used for cAMP inhibition assays and maintained as a monolayer culture in DMEM/F12 (Corning; 10-091-CV) supplemented with 10% Fetal Bovine Serum (Corning; 35-011-CV) and 100IU penicillin, […] streptomycin sulfate (Corning; 30-002-CI) and […] G418 (Gibco; 101310350. Cells were subculture 2 times weekly by o.o5% Trypsin-EDTA treatment (Corning; 25-051-CI) and passaged to continue exponential growth phase for cell signaling assays. All cell cultures were maintained in cell culture incubators at 37° C. with 5% CO2.CEM-CCRF cells (ATCC CCL-119) were used in both the migration and calcium flux assays and were cultured in growth media consisting of RPMI 1640 (Corning; 10-040-CV) supplemented with 10% Fetal Bovine Serum (Corning; 35-011-CV), and 100 IU penicillin, […] streptomycin sulfate (Corning; 30-002-CI). Cells were maintained in suspension and sub-cultured twice weekly to maintain cell densities between 0.8×10^6 cells/mL and 2.5×10^6 cells/mL to maintain exponential growth phase. Cells were harvested for use in migration and calcium flux assays at 2.0×10^6 cells/mL to 2.5×10^6 cells/mL and resuspended in assay media to desired density for respective experiments.
Tango™ CXCR4-bla U2OS Cells were resuspended in assay media consisting of DMEM (Corning; Corning, NY) supplemented with 1% dialyzed Fetal bovine serum, 0.1 mM MEM Non-essential amino acids solution, 25 mM HEPES solution (Corning; Corning, NY), 1 mM Sodium Pyruvate and 100 IU penicillin, […] streptomycin sulfate (Corning; Corning, NY) at a density of 3.0×10^5 cells/ml. Assay media FreeStyle 293 expression Medium (Gibco; 12338018) was used for testing the thiadiazine scaffold CXCR4 agonists. Cells suspension was dispensed at 30 μl per well into assay plate and incubated overnight in a cell culture incubator at 37° C. with 5% CO2. […] Following overnight incubation, LiveBlazer FRET B/G Loading Kit (Invitrogen; K1095) working reagent was prepared according to supplier guidelines and 6 μl of solution was dispensed into each well; 8 μL of solution for testing the thiadiazine scaffold CXCR4 agonists. Assay plate was covered and incubated in a dark place for two hours and Fluorescence Intensity was measured using the BMG LABTECH CLARIOstar Plus (BMG LABTECH Inc., Cary, NC) according to the LiveBlazer FRET B/G Loading Kit excitation and emission measurement guidelines.
Results are expressed as mean±SD for 3 to 5 independent experiments. Statistically significant differences in gene expression between two groups were assessed by Student's T-test, ANOVA with an appropriate post hoc test was be used for multiple comparisons. P<0.05 was considered to be statistically significant. All concentration response curves were analyzed to determine EC50 and Emax using the following equation:
where Y is the normalized response (0-100%), X is the log of concentration of compound tested, and the Hill slope is equal to 1.0% and 100% activity are specific to each assay. […]

The mark [2] stands for this setting: normalized to SDF-1, read-out: TANGO β-arrestin EC50.
The mark [3] stands for this setting: normalized to SDF-1α, read-out: ß-arrestin recruitment EC50.

These results are taken from patent US20250136617A1 (The Regents of the University of Colorado, A Body Corporate, priority 2022, published 2025).

Read-outs that look alike come from different tables or passages of the source.

Chain of CXCR4 (P61073 whole entry): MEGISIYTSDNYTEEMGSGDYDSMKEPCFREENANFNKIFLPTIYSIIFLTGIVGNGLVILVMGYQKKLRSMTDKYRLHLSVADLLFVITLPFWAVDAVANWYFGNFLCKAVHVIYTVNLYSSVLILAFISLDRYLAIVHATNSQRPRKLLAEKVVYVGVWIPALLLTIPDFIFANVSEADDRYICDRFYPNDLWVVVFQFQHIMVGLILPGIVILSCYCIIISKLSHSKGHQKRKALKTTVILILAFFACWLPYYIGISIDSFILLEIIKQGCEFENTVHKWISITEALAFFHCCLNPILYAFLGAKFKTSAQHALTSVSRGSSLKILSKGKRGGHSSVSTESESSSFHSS

As for `CCOc1ccccc1-c1nnc2n1N=C(c1ccc(N3CCCC3)cc1)CS2` [Entry 15], in assay [1], the “Migration CEM Emax (%)” value is “A (A ≥ 70)” and the EC50 was under 5 µM. Further, on CXCR4 (normalized to SDF-1), the “TANGO β-arrestin Emax (%)” value is on record as “A (A ≥ 70)”. Also, at CXCR4 (setting [2]), the EC50 is under 5 µM.

In the case of `COc1ccccc1-c1nnc2n1N=C(c1ccc(N3CCOCC3)cc1)CS2` [Entry 16], the “Migration CEM Emax (%)” value in assay [1] was “A (A ≥ 70)”. Further, the EC50 (in assay [1]; at CXCR4 (setting [2])) was 5 to 50 µM each time. Further, the “TANGO β-arrestin Emax (%)” value on CXCR4 (normalized to SDF-1) is on record as “A (A ≥ 70)”.

Regarding `CCOc1ccccc1-c1nnc2n1N=C(c1ccc(N3CCCCC3)cc1)CS2` [Entry 27], the EC50 (in assay [1] (Homo sapiens); on CXCR4 (setting [2])) was over 10 µM throughout.

As to `CCOc1ccccc1-c1nnc2n1N=C(c1ccc3c(c1)CCCN3)CS2` [Entry 29], in assay [1], the “Migration CEM Emax (%)” value is listed as “C (C ≤ 35)” and the EC50 fell in the range of 5 to 50 µM. In addition, the “TANGO β-arrestin Emax (%)” value on CXCR4 (normalized to SDF-1) was “A (A ≥ 70)”. The EC50 at CXCR4 (setting [2]) was under 5 µM.

For the compound `CCOc1ccccc1-c1nnc2n1N=C(c1ccc(NC(C)=O)cc1)CS2` [Entry 30], the EC50 in assay [1] was over 10 µM; at CXCR4 (setting [2]), under 5 µM; at CXCR4 (setting [3]) it was over 10 µM. Moreover, the “TANGO β-arrestin Emax (%)” value on CXCR4 (normalized to SDF-1) is “C (C ≤ 35)”.

For the compound `CCOc1ccccc1-c1nnc2n1N=C(c1ccc(NC(=O)C(C)C)cc1)CS2` [Entry 31], the EC50 (in assay [1]; at CXCR4 (setting [2]); at CXCR4 (setting [3])) was over 10 µM each time.

On to `CCOc1ccccc1-c1nnc2n1N=C(c1ccc(NC(=O)C3CC3)cc1)CS2` [Entry 32], for which, in assay [1], the “Migration CEM Emax (%)” value is reported as “C (C ≤ 35)” and the EC50 was under 5 µM. Further, the “TANGO β-arrestin Emax (%)” value at CXCR4 (normalized to SDF-1) is “A (A ≥ 70)”. For the same compound, the EC50 at CXCR4 (setting [2]) was under 5 µM.

On to `CCOc1ccccc1-c1nnc2n1N=C(c1ccc(NC(=O)c3ccccc3)cc1)CS2` [Entry 34], for which the Emax (commonly the greatest response seen or fitted, relative to the assay's reference) was under 35% in assay [1] (Homo sapiens) and 35 to 70% on CXCR4 (normalized to SDF-1). In addition, the EC50 (in assay [1] (Homo sapiens); at CXCR4 (setting [2])) was under 5 µM each time.

In the case of `CCOc1ccccc1-c1nnc2n1N=C(c1ccc(NC(=O)c3ccccc3C(=O)O)cc1)CS2` [Entry 35], the EC50 (in assay [1] (Homo sapiens); at CXCR4 (setting [2])) was over 10 µM in each case.

As for `CCOc1ccccc1-c1nnc2n1N=C(c1ccc(NC(=O)c3cccc(C(=O)OC)c3)cc1)CS2` [Entry 36], the EC50 (in assay [1] (Homo sapiens); at CXCR4 (setting [2])) was over 10 µM each time.

As for `CCOc1ccccc1-c1nnc2n1N=C(c1ccc(NC(=O)c3ccc(C(=O)OC)cc3)cc1)CS2` [Entry 37], the EC50 (in assay [1] (Homo sapiens); at CXCR4 (setting [2])) was over 10 µM each time.

Turning to `CCOC(=O)CNc1ccc(C2=Nn3c(nnc3-c3ccccc3OCC)SC2)cc1` [Entry 40], in assay [1], the “Migration CEM Emax (%)” value is recorded as “C (C ≤ 35)”. Moreover, the EC50 in assay [1] was 5 to 50 µM; on CXCR4 (setting [2]), under 5 µM; on CXCR4 (setting [3]), over 5 µM. The “TANGO β-arrestin Emax (%)” value at CXCR4 (normalized to SDF-1) was “C (C ≤ 35)”.

On to `CCOC(=O)CCNc1ccc(C2=Nn3c(nnc3-c3ccccc3OCC)SC2)cc1` [Entry 41], for which the maximum response (Emax) was under 35% in assay [1] (Homo sapiens) and 35 to 70% on CXCR4 (normalized to SDF-1). The EC50 (in assay [1] (Homo sapiens); on CXCR4 (setting [2])) was under 5 µM each time.

As to `C#CCCCNc1ccc(C2=Nn3c(nnc3-c3ccccc3OCC)SC2)cc1` [Entry 43], in assay [1], the “Migration CEM Emax (%)” value is reported as “C (C ≤ 35)”. Moreover, at CXCR4 (normalized to SDF-1), the “TANGO β-arrestin Emax (%)” value is on record as “C (C ≤ 35)”. For the same compound, the EC50 at CXCR4 (setting [2]) is under 5 µM.

Consider `CCOc1ccccc1-c1nnc2n1N=C(c1ccc(NC3CCCC3)cc1)CS2` [Entry 45], for which the “Migration CEM Emax (%)” value in assay [1] is given as “C (C ≤ 35)”. The EC50 is under 5 µM in assay [1], under 5 µM at CXCR4 (setting [2]) and 1.4 µM on CXCR4 (setting [3]). The “TANGO β-arrestin Emax (%)” value on CXCR4 (normalized to SDF-1) is listed as “C (C ≤ 35)”. Moreover, the “ß-arrestin recruitment Emax (%)” value on CXCR4 is on record as 31%.

Regarding `CCOc1ccccc1-c1nnc2n1N=C(c1ccc(NC3CCCCC3)cc1)CS2` [Entry 46], in assay [1], the “Migration CEM Emax (%)” value was “C (C ≤ 35)”. Besides, the values for the EC50 (in assay [1]; at CXCR4 (setting [2]); at CXCR4 (setting [3])) were under 5 µM, under 5 µM and 0.77 µM, respectively. Also, at CXCR4 (normalized to SDF-1), the “TANGO β-arrestin Emax (%)” value is reported as “C (C ≤ 35)”. The “ß-arrestin recruitment Emax (%)” value at CXCR4 is 10%.

Regarding `CCOc1ccccc1-c1nnc2n1N=C(c1ccc(NCc3ccccc3)cc1)CS2` [Entry 47], the EC50 (in assay [1] (Homo sapiens); at CXCR4 (setting [2])) was over 10 µM each time.

Regarding `CCOc1ccccc1-c1nnc2n1N=C(c1ccc(NCC3CC3)cc1)CS2` [Entry 48], the EC50 was over 10 µM in assay [1] (Homo sapiens) and under 5 µM on CXCR4 (setting [2]). Moreover, the maximal effect (Emax) on CXCR4 (normalized to SDF-1) is under 35%.

With `CCOc1ccccc1-c1nnc2n1N=C(c1ccc(NCC3CCCC3)cc1)CS2` [Entry 49], the EC50 (in assay [1]; on CXCR4 (setting [2])) was over 10 µM throughout.

Take `CCOc1ccccc1-c1nnc2n1N=C(c1ccc(N3CCCC3=O)cc1)CS2` [Entry 63]: the Emax in assay [1] (Homo sapiens) is 35 to 70%; at CXCR4 (normalized to SDF-1) it was under 35%. For the same compound, at CXCR4 (setting [2]), the EC50 is under 5 µM.

As to `CCOC(=O)C1CCN(c2ccc(C3=Nn4c(nnc4-c4ccccc4OCC)SC3)cc2)C1` (stereo not shown) [Entry 66], the “Migration CEM Emax (%)” value in assay [1] is “B (35 < B < 70)”. In addition, the EC50 in assay [1] was under 5 µM; at CXCR4 (setting [2]) it was over 10 µM. In addition, the “TANGO β-arrestin Emax (%)” value at CXCR4 (normalized to SDF-1) is “C (C ≤ 35)”.

Turning to `CCOc1ccccc1-c1nnc2n1N=C(c1ccc(C(=O)Nc3ccccc3)cc1)CS2` [Entry 69], the Emax was 35 to 70% in assay [1] (Homo sapiens) and under 35% at CXCR4 (normalized to SDF-1). The EC50 (in assay [1] (Homo sapiens); on CXCR4 (setting [2])) was under 5 µM each time.

Consider `CCOc1ccccc1-c1nnc2n1N=C(c1ccc(C(=O)O)cc1)CS2` [Entry 70], for which, in assay [1] (Homo sapiens), the Emax is 35 to 70% and the EC50 is under 5 µM. Also, the EC50 on CXCR4 (setting [2]) was over 10 µM.

As to `CCOc1ccccc1-c1nnc2n1N=C(c1ccc(C(=O)OC)cc1)CS2` [Entry 71], the Emax in assay [1] (Homo sapiens) is 35 to 70%; on CXCR4 (normalized to SDF-1) it was under 35%. Moreover, the EC50 (in assay [1] (Homo sapiens); on CXCR4 (setting [2])) was under 5 µM each time.

On to `COc1ccc(OC)c(-c2nnc3n2N=C(c2ccc(N4CCC4)cc2)CS3)c1` [Entry 80], for which the Emax was 35 to 70% in assay [1] (Homo sapiens) and under 35% at CXCR4 (normalized to SDF-1). Moreover, the EC50 (in assay [1] (Homo sapiens); on CXCR4 (setting [2])) was under 5 µM throughout.
